Results from PubChem BioAssay (NCI).
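How tested: cells in 96-well plates exposed to compound for 48 hours at five concentrations. TGI marks complete inhibition of growth.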

Experiments:
Assay in all cases: NCI-60 cell line screen, 48 h
M19-MEL melanoma = tested on: M19-MEL melanoma
M14 melanoma = tested on: M14 melanoma
HT29 colon = tested on: HT29 colon
SNB-75 CNS = tested on: SNB-75 CNS
HOP-62 NSCLC = tested on: HOP-62 NSCLC
SF-268 CNS = tested on: SF-268 CNS
NCI-H23 lung = tested on: NCI-H23 lung
RPMI-8226 leukemia = tested on: RPMI-8226 leukemia
OVCAR-5 ovarian = tested on: OVCAR-5 ovarian
DMS 273 small cell lung = tested on: DMS 273 small cell lung
CCRF-CEM leukemia = tested on: CCRF-CEM leukemia
KM20L2 colon = tested on: KM20L2 colon
NCI-H522 lung = tested on: NCI-H522 lung
ACHN renal = tested on: ACHN renal
UO-31 renal = tested on: UO-31 renal
HOP-18 NSCLC = tested on: HOP-18 NSCLC
SN12C renal = tested on: SN12C renal
SK-MEL-28 melanoma = tested on: SK-MEL-28 melanoma
MALME-3M melanoma = tested on: MALME-3M melanoma
OVCAR-8 ovarian = tested on: OVCAR-8 ovarian
OVCAR-3 ovarian = tested on: OVCAR-3 ovarian
SR leukemia = tested on: SR leukemia
IGROV1 ovarian = tested on: IGROV1 ovarian
K-562 leukemia = tested on: K-562 leukemia
HCT-15 colon = tested on: HCT-15 colon
SK-MEL-5 melanoma = tested on: SK-MEL-5 melanoma
RXF 393 renal = tested on: RXF 393 renal
SK-OV-3 ovarian = tested on: SK-OV-3 ovarian
LXFL 529 NSCLC = tested on: LXFL 529 NSCLC
UACC-257 melanoma = tested on: UACC-257 melanoma
TK-10 renal = tested on: TK-10 renal
CAKI-1 renal = tested on: CAKI-1 renal
COLO 205 colon = tested on: COLO 205 colon
UACC-62 melanoma = tested on: UACC-62 melanoma
OVCAR-4 ovarian = tested on: OVCAR-4 ovarian
DLD-1 colon = tested on: DLD-1 colon
SNB-19 CNS = tested on: SNB-19 CNS
SF-295 CNS = tested on: SF-295 CNS
HCC-2998 colon = tested on: HCC-2998 colon
LOX IMVI melanoma = tested on: LOX IMVI melanoma
MOLT-4 leukemia = tested on: MOLT-4 leukemia
HL-60(TB) leukemia = tested on: HL-60(TB) leukemia
KM12 colon = tested on: KM12 colon
HCT-116 colon = tested on: HCT-116 colon
HOP-92 NSCLC = tested on: HOP-92 NSCLC
SNB-78 CNS = tested on: SNB-78 CNS
U251 CNS = tested on: U251 CNS
XF 498 CNS = tested on: XF 498 CNS
SF-539 CNS = tested on: SF-539 CNS
A549 NSCLC = tested on: A549 NSCLC
NCI-H460 lung = tested on: NCI-H460 lung
SK-MEL-2 melanoma = tested on: SK-MEL-2 melanoma
EKVX NSCLC = tested on: EKVX NSCLC
NCI-H226 lung = tested on: NCI-H226 lung
A498 renal = tested on: A498 renal
DMS 114 small cell lung = tested on: DMS 114 small cell lung
SW-620 colon = tested on: SW-620 colon
786-0 renal = tested on: 786-0 renal

Measured: TGI

CC(=O)Nc1ccc(/C=C(\NC(=O)c2ccccc2)C(=O)NNS(=O)(=O)c2ccc(C)cc2)cc1
37.8 µM: SR leukemia
34.8 µM: DMS 273 small cell lung
> 100 µM: M19-MEL melanoma | M14 melanoma | HT29 colon | SNB-75 CNS | HOP-62 NSCLC | SF-268 CNS | NCI-H23 lung | OVCAR-5 ovarian | CCRF-CEM leukemia | KM20L2 colon | NCI-H522 lung | ACHN renal | UO-31 renal | HOP-18 NSCLC | SN12C renal | SK-MEL-28 melanoma | MALME-3M melanoma | OVCAR-8 ovarian | OVCAR-3 ovarian | IGROV1 ovarian | K-562 leukemia | SK-MEL-5 melanoma | RXF 393 renal | SK-OV-3 ovarian | LXFL 529 NSCLC | UACC-257 melanoma | TK-10 renal | CAKI-1 renal | UACC-62 melanoma | OVCAR-4 ovarian | DLD-1 colon | SNB-19 CNS | SF-295 CNS | HCC-2998 colon | MOLT-4 leukemia | HL-60(TB) leukemia | KM12 colon | HCT-116 colon | HOP-92 NSCLC | SNB-78 CNS | U251 CNS | XF 498 CNS | SF-539 CNS | A549 NSCLC | NCI-H460 lung | SK-MEL-2 melanoma | EKVX NSCLC | NCI-H226 lung
41.1 µM: HCT-15 colon
38.2 µM: LOX IMVI melanoma
71.2 µM: COLO 205 colon
49 µM: RPMI-8226 leukemia

COc1cc2c3c(c1OC)Oc1ccc(cc1)CC1c4c(cc(OC)c(OC)c4Oc4ccc(cc4)CC3N(C)CC2)CCN1C (stereo not given)
34 µM: A498 renal
25.8 µM: NCI-H522 lung
70.4 µM: RPMI-8226 leukemia | A549 NSCLC
61.4 µM: HOP-62 NSCLC
34.1 µM: HL-60(TB) leukemia
26.4 µM: COLO 205 colon
35.2 µM: HT29 colon
28.6 µM: UACC-257 melanoma
33.2 µM: M14 melanoma
36.3 µM: OVCAR-4 ovarian
27.2 µM: HCT-116 colon
30.4 µM: SW-620 colon
63.2 µM: MOLT-4 leukemia
36.1 µM: SF-295 CNS
28 µM: HCC-2998 colon | SF-539 CNS
55.5 µM: NCI-H226 lung
7.24 µM: SR leukemia
84.1 µM: SK-OV-3 ovarian
30.8 µM: U251 CNS
31.3 µM: M19-MEL melanoma
34.9 µM: UACC-62 melanoma | LOX IMVI melanoma
31.7 µM: SK-MEL-5 melanoma
55.1 µM: CCRF-CEM leukemia
39.6 µM: LXFL 529 NSCLC
53 µM: 786-0 renal
35.5 µM: K-562 leukemia
31.4 µM: UO-31 renal
34.2 µM: SK-MEL-28 melanoma
37.2 µM: DMS 273 small cell lung
49.2 µM: SNB-75 CNS
67.8 µM: IGROV1 ovarian
34.5 µM: MALME-3M melanoma
37.1 µM: NCI-H460 lung
35.9 µM: DMS 114 small cell lung
46.1 µM: TK-10 renal
> 100 µM: NCI-H23 lung | OVCAR-5 ovarian | ACHN renal | CAKI-1 renal | DLD-1 colon | SNB-19 CNS | KM12 colon | HOP-92 NSCLC | EKVX NSCLC
45.2 µM: KM20L2 colon
50.6 µM: SK-MEL-2 melanoma
40.3 µM: RXF 393 renal
84.2 µM: HOP-18 NSCLC
44.7 µM: OVCAR-3 ovarian
49.7 µM: SN12C renal
64.5 µM: SF-268 CNS
60 µM: OVCAR-8 ovarian

COc1cccc2c1[C@]1(O)C(O)CCCC21 (stereo not given in full)
> 100 µM: M19-MEL melanoma | M14 melanoma | HT29 colon | SNB-75 CNS | HOP-62 NSCLC | SF-268 CNS | NCI-H23 lung | RPMI-8226 leukemia | A498 renal | OVCAR-5 ovarian | DMS 273 small cell lung | DMS 114 small cell lung | CCRF-CEM leukemia | KM20L2 colon | NCI-H522 lung | ACHN renal | UO-31 renal | HOP-18 NSCLC | SN12C renal | SK-MEL-28 melanoma | MALME-3M melanoma | OVCAR-8 ovarian | OVCAR-3 ovarian | IGROV1 ovarian | K-562 leukemia | HCT-15 colon | SK-MEL-5 melanoma | RXF 393 renal | SK-OV-3 ovarian | LXFL 529 NSCLC | UACC-257 melanoma | TK-10 renal | CAKI-1 renal | COLO 205 colon | UACC-62 melanoma | OVCAR-4 ovarian | DLD-1 colon | SNB-19 CNS | SF-295 CNS | HCC-2998 colon | LOX IMVI melanoma | MOLT-4 leukemia | SW-620 colon | KM12 colon | HCT-116 colon | SNB-78 CNS | U251 CNS | SF-539 CNS | A549 NSCLC | 786-0 renal | NCI-H460 lung | SK-MEL-2 melanoma | NCI-H226 lung

CCOC(=O)/C(C#N)=C(N)/C(=N\Nc1cccc(C(F)(F)F)c1)C(=O)OCC
> 100 µM: M19-MEL melanoma | M14 melanoma | HT29 colon | SNB-75 CNS | HOP-62 NSCLC | SF-268 CNS | NCI-H23 lung | RPMI-8226 leukemia | A498 renal | OVCAR-5 ovarian | DMS 273 small cell lung | DMS 114 small cell lung | CCRF-CEM leukemia | KM20L2 colon | NCI-H522 lung | ACHN renal | UO-31 renal | HOP-18 NSCLC | SN12C renal | SK-MEL-28 melanoma | MALME-3M melanoma | OVCAR-8 ovarian | OVCAR-3 ovarian | SR leukemia | IGROV1 ovarian | HCT-15 colon | SK-MEL-5 melanoma | SK-OV-3 ovarian | LXFL 529 NSCLC | UACC-257 melanoma | TK-10 renal | CAKI-1 renal | COLO 205 colon | UACC-62 melanoma | OVCAR-4 ovarian | DLD-1 colon | SNB-19 CNS | SF-295 CNS | HCC-2998 colon | LOX IMVI melanoma | MOLT-4 leukemia | HL-60(TB) leukemia | SW-620 colon | HCT-116 colon | HOP-92 NSCLC | SNB-78 CNS | U251 CNS | SF-539 CNS | A549 NSCLC | 786-0 renal | SK-MEL-2 melanoma | EKVX NSCLC | NCI-H226 lung
